Results: PubChem BioAssay AID192 (DTP/NCI, 2004)
Values joined by “and” are separate entries in the source; they are usually repeats but may differ in a detail not shown here. Equal entries are not always repeated. Toxic doses and inconclusive results are not listed. How the source made its calls: active means survival T/C of 150% or more; inactive means T/C below 125% in these data.

Tested on: BDF1 mice, B16 melanoma ip, median survival T/C
Assay: NCI In Vivo Anticancer Drug Screen. Data for tumor model B16 Melanoma (intraperitoneal) in B6D2F1 (BDF1) mice
Conditions: endpoint: median survival time, higher = longer survival
Procedure, shortened: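 Compounds were tested in mice carrying transplantable tumors. Survival or tumor size was recorded, and each value is the treated-group measurement (T) divided by that of the vehicle-treated control group (C).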

[1] = dose: 100.0 mg/kg/injection, schedule: Q01DX009 (ip), vehicle: Klucel (hydroxypropylcellulose) (HPC)
[2] = dose: 200.0 mg/kg/injection, schedule: Q01DX009 (ip), vehicle: Klucel (hydroxypropylcellulose) (HPC)
[3] = dose: 400.0 mg/kg/injection, schedule: Q01DX009 (ip), vehicle: Klucel (hydroxypropylcellulose) (HPC)
[4] = dose: 50.0 mg/kg/injection, schedule: Q01DX009 (ip), vehicle: saline with Tween-80

Measured: T/C

NC(CC(=O)O)CC(=O)O
inactive: dose: 25.0 mg/kg/injection, schedule: Q01DX009 (ip), vehicle: suspension in saline 91 % of control | dose: 50.0 mg/kg/injection, schedule: Q01DX009 (ip), vehicle: suspension in saline 92 % of control | dose: 100.0 mg/kg/injection, schedule: Q01DX009 (ip), vehicle: suspension in saline 103 % of control | dose: 200.0 mg/kg/injection, schedule: Q01DX009 (ip), vehicle: suspension in saline 100 % of control | dose: 400.0 mg/kg/injection, schedule: Q01DX009 (ip), vehicle: suspension in saline 90 % of control

COc1cc2c3c(c1)/C(=N\NC(N)=O)CCN3CCC2
inactive: dose: 100.0 mg/kg/injection, schedule: Q04DX003 (ip), vehicle: Klucel (hydroxypropylcellulose) (HPC) 97 % of control | dose: 200.0 mg/kg/injection, schedule: Q04DX003 (ip), vehicle: Klucel (hydroxypropylcellulose) (HPC) 100 % of control | dose: 400.0 mg/kg/injection, schedule: Q04DX003 (ip), vehicle: Klucel (hydroxypropylcellulose) (HPC) 100 % of control

CC[PH+](CC)CC[S-].CC[PH+](CC)CC[S-].[Au+].[Au+]
inactive: dose: 2.5 mg/kg/injection, schedule: Q01DX009 (ip), vehicle: Klucel (hydroxypropylcellulose) (HPC) 109 % of control | dose: 5.0 mg/kg/injection, schedule: Q01DX009 (ip), vehicle: Klucel (hydroxypropylcellulose) (HPC) 112 % of control | dose: 10.0 mg/kg/injection, schedule: Q01DX009 (ip), vehicle: Klucel (hydroxypropylcellulose) (HPC) 118 % of control | dose: 20.0 mg/kg/injection, schedule: Q01DX009 (ip), vehicle: Klucel (hydroxypropylcellulose) (HPC) 112 % of control | dose: 40.0 mg/kg/injection, schedule: Q01DX009 (ip), vehicle: Klucel (hydroxypropylcellulose) (HPC) 110 % of control

COc1cc2c(cc1OC)C(CNC(=O)/C=C/c1ccccc1)C2 (stereo unspecified)
inactive: [1] 122 % of control | [2] 97 % of control | [3] 94 % of control

c1ccc(COc2ccc(Nc3ccccc3)cc2)cc1
inactive: [1] 106 % of control | [2] 109 % of control | [3] 112 % of control

CN(C)c1ccc(N=C2C=CC(=O)C=C2)cc1
inactive: dose: 1.5 mg/kg/injection, schedule: Q01DX009 (ip), vehicle: saline 111 % of control | dose: 3.0 mg/kg/injection, schedule: Q01DX009 (ip), vehicle: saline 98 % of control | dose: 6.0 mg/kg/injection, schedule: Q01DX009 (ip), vehicle: saline 105 % of control

COc1ccc([I+]c2ccc(OC)cc2)cc1
inactive: dose: 0.75 mg/kg/injection, schedule: Q01DX009 (ip), vehicle: saline with Tween-80 95 % of control | dose: 1.5 mg/kg/injection, schedule: Q01DX009 (ip), vehicle: saline with Tween-80 95 % of control | dose: 3.0 mg/kg/injection, schedule: Q01DX009 (ip), vehicle: saline with Tween-80 100 % of control

CC(C)(C)OC(=O)NC(CCC(=O)OCc1ccccc1)C(=O)ON1C(=O)CCC1=O (stereo unspecified)
inactive: [4] 95 % of control | dose: 100.0 mg/kg/injection, schedule: Q01DX009 (ip), vehicle: saline with Tween-80 90 % of control

NC(=S)c1cn(C2OC(CO)C(O)C2O)c2ncnc(N)c12 (stereo unspecified)
inactive: dose: 2.5 mg/kg/injection, schedule: Q01DX009 (ip), vehicle: saline 89 % of control | dose: 5.0 mg/kg/injection, schedule: Q01DX009 (ip), vehicle: saline 91 % of control

Cc1oc2c(c(=O)c1C)C1CCC(C2)N1C (stereo unspecified)
inactive: dose: 25.0 mg/kg/injection, schedule: Q01DX009 (ip), vehicle: Klucel (hydroxypropylcellulose) (HPC) 103 % of control | dose: 50.0 mg/kg/injection, schedule: Q01DX009 (ip), vehicle: Klucel (hydroxypropylcellulose) (HPC) 103 % of control | [1] 97 % of control

CN1C(=O)NC(c2ccc(Cl)cc2)(c2ccc(Cl)cc2)C1=O
inactive: dose: 0.78 mg/kg/injection, schedule: Q01DX009 (ip), vehicle: water 100 % of control | dose: 1.56 mg/kg/injection, schedule: Q01DX009 (ip), vehicle: water 95 % of control | dose: 3.12 mg/kg/injection, schedule: Q01DX009 (ip), vehicle: water 100 % of control | dose: 6.25 mg/kg/injection, schedule: Q01DX009 (ip), vehicle: water 100 % of control and 112 % of control | dose: 12.5 mg/kg/injection, schedule: Q01DX009 (ip), vehicle: distilled water + Tween-80 100 % of control | dose: 12.5 mg/kg/injection, schedule: Q01DX009 (ip), vehicle: water 99 % of control and 102 % of control | dose: 25.0 mg/kg/injection, schedule: Q01DX009 (ip), vehicle: distilled water + Tween-80 105 % of control | dose: 25.0 mg/kg/injection, schedule: Q01DX009 (ip), vehicle: water 101 % of control and 105 % of control | dose: 50.0 mg/kg/injection, schedule: Q01DX009 (ip), vehicle: distilled water + Tween-80 99 % of control | dose: 100.0 mg/kg/injection, schedule: Q01DX009 (ip), vehicle: distilled water + Tween-80 116 % of control | dose: 200.0 mg/kg/injection, schedule: Q01DX009 (ip), vehicle: distilled water + Tween-80 98 % of control

CCc1cc(O)cc(C)c1Cl
inactive: dose: 12.5 mg/kg/injection, schedule: Q01DX009 (ip), vehicle: saline with Tween-80 95 % of control | dose: 25.0 mg/kg/injection, schedule: Q01DX009 (ip), vehicle: saline with Tween-80 110 % of control | [4] 99 % of control and 106 % of control
